Data as given in US5486528A, “Basic ethers and process for the preparation thereof” (Egis Gyogyszergyar Rt., priority 1993, dated 1996).
Like-named read-outs stand apart in the source and are kept apart here.

Columns and labels:
Male Wistar rats [1] = assay: Vogel test (drinking conflict test), anxiolytic effect; assay type: in vivo, rat (Wistar); settings: ip, 0.5 h; rat, intraperitoneally, half an hour before testing; read-out: MED (minimum effective dose), Vogel test
Description: 1.1. Vogel test (drinking conflict test)
The anxiolytic effect was tested by using the method of Vogel et al. Male Wistar rats of 160 to 180 g body weight were kept free of food and drinking water for 24 and 48 hours, respectively. Test and carrier substances were administered intraperitoneally half an hour before testing. Animals within the experimental chamber were provided with drinking water through an inserted tube. After the animals' each twenty lapping for water the device emitted a 2 mA intensity electric shock through the drinking tube. During 5 minutes the shocks tolerated by the animals in order to quench their thirst were counted. The effect of treatment was expressed as the % increase of the tolerated shocks. The minimum effective dose (MED) was determined for each test compound [Volge, J. R., Beer, B., Clody, D. E.: Psychopharmacologia (Berl.) 21, 1 (1971)].

Male Wistar rats [2] = assay: Conditioned avoidance response inhibition, antipsychotic effect; assay type: in vivo, rat (Wistar); settings: rat; for Inhibition of the conditioned reflex (%): 30 mg/kg p.o., ++ = p < 0.05
Description: Conditioned avoidance response inhibition
The antipsychotic (neuroleptic) effect was measured by the inhibition of the learned conditioned avoidance reflex. The male Wistar rats, used for the study, were of 120-150 g body weight at the commencement of learning. A shuttle box was used as experimental device; it consists of two parts, 24×24.5×23 cm each, separated by a wall with a 6×9 cm gate. In response to a sutiable warning stimulus, in order to avoid the punishing (unconditioned) stimulus, animals within the box passed through the gate from one part to the other. The warning, i.e. conditioned stimulus (CS), a white light (1 Hz) blinking for 15 seconds, was applied at the place of the actual animal existence. The unconditioned stimulus (US), in form of 0.6 mA intensity electric shock, was randomly applied to the paw during the last 5 seconds of the conditioned stimulus. The animal's movement during the CS and US from one part of the box to the other, was defined as avoidance and escape responses, respectively. Both responses ceased the actual stimulus and stopped the trial. The time elapsed until the next trial (intertrial interval, ITI) was 15 seconds. While one experiment was carried out daily, an experiment consisted of 80 trials. Learning efficiency was expressed as percentage of the successful to the total avoidances. Effect of the neuroleptic drugs was examined in animals with stabilized conditioned reflexes and with at least 75% learning efficiency. Dosing was carried out once a week, one hour before the measurement in the shuttle box. To calculate the neuroleptic effect (50% inhibiting dose, ID50) , results obtained after the treatment were compared to those obtained on the previous day (controls).

mice = assay: Effect on the spontaneous motor activity (Borsy), sedative effect; assay type: in vivo, mouse; settings: for ED50: Mus musculus, po, 0.5 h, read-out: ID50, spontaneous motor activity
Description: 2.1. Effect on the spontaneous motor activity
The test was carried out according to the method of Borsy et al. Groups consisting of 3 mice each were treated orally with different doses of the compounds to be tested. Then the test animals were placed into a 10-channel Dews system equipment. In this equipment the number of interruptions of infrared beam within 30 minutes was counted. […] Int. Pharmacodyn. 124, 1 (1960)].

[3] = Acute toxicity on mice (Litchfield and Wilcoxon); settings: mouse, in vivo, po
Description: The test was carried out according to the method of Litchfield and Wilcoxon [Litchfield, J. T. and Wilcoxon, F. W.: J. Pharmacol. Exp. Ther., 96, 99 (1949)] by using white mice belonging to the CFLP strain and weighing 10 to 22 g, 10 animals per dose. The test compounds were administered orally in a volume of 20 cm^3 /kg.

[4] = Acute toxicity on mice (Litchfield and Wilcoxon); settings: mouse, in vivo, ip
gastric-acid secretion = assay: Gastric-acid-secretion test (Shay); assay type: in vivo, rat; settings: po, read-out: Acid-secretion inhibition, ED50
Description: 2. […] The liberated gastric-acid content was determined by titration 4 hours after the ligature of the duodenum.

[5] = tested on: erosion of the stomach wall; assay: Cytoprotective effect, ethanol erosion (Robert); assay type: in vivo; settings: rat; for ED50: po; for Ratio of acid-secretion inhibition and erosion inhibition: ratio of ED50 values
Description: 3. The cytoprotective effect was determined according to the method of Robert [Robert, A.: Cytoprotection by prostaglandins. […] Rats weighing 200 to 250 g were used as test animals. 1 cm^3 of abs. ethanol was introduced to the stomach to produce an erosion of the stomach wall. The length and frequency of the lesions (erosion index and frequency) were measured and the percentage inhibition of lesion formation compared with vehicle-treated animals was calculated.

H^+ /K^+ -ATP-ase = target: T1, H^+ /K^+ -ATP-ase (Sus scrofa, UniProt P19156); assay: H+/K+-ATP-ase inhibition on partially purified pig's microsome specimen; assay type: biochemical
T1 construct: on partially purified pig's microsome specimen; from tissue; host or cells: pig stomach, partially purified microsomes
T1 sequence (P19156 2-1034 limits assumed): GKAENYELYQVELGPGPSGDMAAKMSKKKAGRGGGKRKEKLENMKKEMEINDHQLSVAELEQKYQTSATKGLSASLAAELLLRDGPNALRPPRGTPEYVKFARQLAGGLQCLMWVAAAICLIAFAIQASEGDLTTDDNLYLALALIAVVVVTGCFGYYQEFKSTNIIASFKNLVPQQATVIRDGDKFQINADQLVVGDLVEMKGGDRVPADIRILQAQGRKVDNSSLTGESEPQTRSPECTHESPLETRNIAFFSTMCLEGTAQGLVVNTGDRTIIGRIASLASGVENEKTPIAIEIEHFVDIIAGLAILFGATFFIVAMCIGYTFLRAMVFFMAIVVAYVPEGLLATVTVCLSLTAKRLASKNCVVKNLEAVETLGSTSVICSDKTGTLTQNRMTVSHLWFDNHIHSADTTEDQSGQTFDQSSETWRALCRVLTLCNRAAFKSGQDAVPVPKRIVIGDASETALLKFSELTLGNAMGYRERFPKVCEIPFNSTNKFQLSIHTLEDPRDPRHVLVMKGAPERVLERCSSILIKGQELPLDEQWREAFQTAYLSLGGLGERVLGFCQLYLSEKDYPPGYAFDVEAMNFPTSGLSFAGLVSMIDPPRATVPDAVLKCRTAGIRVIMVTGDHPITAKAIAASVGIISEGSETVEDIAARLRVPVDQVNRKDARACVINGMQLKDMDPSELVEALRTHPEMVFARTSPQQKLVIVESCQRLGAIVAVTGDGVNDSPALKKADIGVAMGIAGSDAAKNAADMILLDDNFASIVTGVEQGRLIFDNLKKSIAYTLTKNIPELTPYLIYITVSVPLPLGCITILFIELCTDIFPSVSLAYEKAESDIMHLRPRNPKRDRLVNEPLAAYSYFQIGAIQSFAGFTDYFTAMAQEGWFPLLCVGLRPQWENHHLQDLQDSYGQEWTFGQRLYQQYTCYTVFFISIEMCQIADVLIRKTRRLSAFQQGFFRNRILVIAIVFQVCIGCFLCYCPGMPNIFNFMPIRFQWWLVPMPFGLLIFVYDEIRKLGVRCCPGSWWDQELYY
T1 sequence (P18434 whole entry partner): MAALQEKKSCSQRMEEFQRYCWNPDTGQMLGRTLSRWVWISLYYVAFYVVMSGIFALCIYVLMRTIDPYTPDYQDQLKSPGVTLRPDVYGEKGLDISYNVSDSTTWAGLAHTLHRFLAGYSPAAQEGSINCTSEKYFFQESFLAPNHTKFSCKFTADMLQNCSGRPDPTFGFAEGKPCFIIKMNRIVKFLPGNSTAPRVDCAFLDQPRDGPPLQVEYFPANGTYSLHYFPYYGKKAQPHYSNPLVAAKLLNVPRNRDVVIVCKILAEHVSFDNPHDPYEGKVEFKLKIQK
Description: 1. H^+ /K^+ -ATP-ase inhibition on pig's stomach
The test was carried out according to the method of Rabon and Sachs [E. C. Rabon et al.: Preparation of gastric H^+ K^+ -ATP-ase, Methods in Enzymology, 157, 649-651 (1988)]. The activity of the prepared enzyme was measured both in the presence as in the absence of K^+ ions. The difference in the libaration of phosphorus representing the activity of the enzyme was measured.

[6] = rat, p.o., 4 hours after ligature

| Molecule | minimal effective dose (Male Wistar rats [1]) | Inhibition of the conditioned reflex (%) (Male Wistar rats [2]) | ED50 (mice; mice, orally, 30 minutes) | ED50 (gastric-acid secretion; [6]) | ED50 ([5]; 1 cm^3 abs. ethanol) | Ratio of acid-secretion inhibition and erosion inhibition ([5]; p.o.) | LD50 at 336 h [3] | IC50 (H^+ /K^+ -ATP-ase) | LD50 at 336 h [4] | other results |
| --- | --- | --- | --- | --- | --- | --- | --- | --- | --- | --- |
| CCC(/C=C/c1ccccc1)=N\OCC(C)CN(C)C (racemic) [Example 18, (R,S)-1-Phenyl-3-(E)-[3-(dimethylamino)-2-methylpropoxyimino]-1-(E)-pentene] | 1 mg/kg | 12% | – | – | – | – | – | – | – | inhibition of spontaneous motor activity at 100 mg/kg (mice; mice, orally, 100 mg/kg): 54% |
| CCC(/C=C/c1ccc(Cl)cc1)=N\OCC(C)CN(C)C (racemic) [Example 19, (R,S)-1-(4-Chlorophenyl)-3-(E)-[3-(dimethylamino)-2-methylpropoxyimino]-1-(E)-pentene] | 10 mg/kg | 19% | > 100 mg/kg | – | – | – | – | – | – | – |
| CC(C)CCC(/C=C/c1ccc(Cl)cc1)=N\OCC(O)CNC1CCCCC1 (racemic) [Example 36, (R,S)-1-(4-Chlorophenyl)-6-methyl-3-(E)-[3-(cyclohexylamino)-2-hydroxypropoxyimino]-1-(E)-heptene] | – | – | – | – | – | – | – | – | – | LD50 at 336 h ([3]; mice, 14 days observation): > 1000 mg/kg; LD50 at 336 h ([4]; mice, 14 days observation): 30 to 100 mg/kg |
| CC(C)CCC(/C=C/c1ccc(Cl)cc1)=N\OCC(O)CN1CCCCC1 (racemic) [Example 37, (R,S)-1-(4-Chlorophenyl)-6-methyl-3-(E)-[2-hydroxy-3-(1-piperidinyl)-propoxyimino]-1-(E)-heptene] | – | – | – | 30 to 100 mg/kg | 3 to 10 mg/kg | > 10 | > 1000 mg/kg | 21 µM | 100 to 300 mg/kg | – |
| CNC1=Nc2ccc(Cl)cc2C(c2ccccc2)=[N+]([O-])C1 [Chlorodiazepoxide, reference compound] | – | – | 56 mg/kg | – | – | – | – | – | – | – |
| CN/C(=N/CCSCc1nc[nH]c1C)NC#N [Cimetidine, reference compound] | – | – | – | – | 100 to 200 mg/kg | 0.3-0.6 | – | – | – | ED50 (gastric-acid secretion; Rattus norvegicus, 4 h): 59.1 mg/kg |
| CN1C(=O)CN=C(c2ccccc2)c2cc(Cl)ccc21 [Diazepam, reference compound] | – | – | – | – | – | – | – | – | – | ED50 (mice): 23 mg/kg |
| CCCC(/C=C/c1ccccc1)=N\OCCN(CC)CC [Example 1, 1-Phenyl-3-(E)-[2-(diethylamino)-ethoxyimino]-1-(E)-hexene] | 30 mg/kg | 10% | > 100 mg/kg | – | – | – | – | – | – | – |
| CCCCCCC(/C=C/c1ccc(Cl)cc1)=N\OCCN1CCCCC1 [Example 3, 1-(4-Chlorophenyl)-3-(E)-[2-(N-piperidinyl)-ethoxyimino]-1-(E)-nonene] | – | – | – | 50 to 150 mg/kg | 2.5 mg/kg | > 20 | 500 to 1000 mg/kg | 10 µM | 100 to 300 mg/kg | – |
| CC(C)CCC(/C=C/c1ccccc1)=N\OCCCN(C)C [Example 5, 1-Phenyl-6-methyl-3-(E)-[3-(dimethylamino)-propoxyimino]-1-(E)-heptene] | > 30 mg/kg | 16% | > 100 mg/kg | – | – | – | – | – | – | – |
| CCC(/C=C/c1ccc(Cl)cc1)=N\OCCN(C)C [Example 7, 1-(4-Chlorophenyl)-3-(E)-[2-(dimethylamino)-ethoxyimino]-1-(E)-pentene] | 3 mg/kg | 22% | > 100 mg/kg | – | – | – | – | – | – | – |
| CC(C)CCC(/C=C/c1ccc(Cl)cc1)=N\OCCCN(C)C [Example 13, 1-(4-Chlorophenyl)-6-methyl-3-(E)-[3-(dimethylamino)-propoxyimino]-1-(E)-heptene] | > 30 mg/kg | 12% | > 100 mg/kg | – | – | – | – | – | – | – |
| CCC(/C=C/c1ccccc1)=N\OCCN(C)C [Example 14, 1-Phenyl-3-(E)-[2-(dimethylamino)-ethoxyimino]-1-(E)-pentene] | 10 mg/kg | 18% | > 100 mg/kg | – | – | – | – | – | – | – |
| CC(C)CCC(/C=C/c1ccc(Cl)cc1)=N\OCCN(C)C [Example 15] | 3 mg/kg | 11% | > 100 mg/kg | – | – | – | – | – | – | – |
| CC(C)CC(/C=C/c1ccccc1)=N\OCCN(C)C [Example 17, 1-Phenyl-5-methyl-3-(E)-[2-(dimethylamino)-ethoxyimino]-1-(E)-hexene] | 30 mg/kg | 40% | > 100 mg/kg | 166 mg/kg | 2.7 mg/kg | 61.4 | > 1000 mg/kg | > 30 µM | 100 to 300 mg/kg | antipsychotic / conditioned-reflex-inhibiting activity (in words) (Male Wistar rats [2]; in vivo): slight conditioned-reflex-inhibiting activity |
| CC(C)CCC(/C=C/c1ccc(Cl)cc1)=N\OCCCN1CCCCCC1 [Example 35, 1-(Chlorophenyl)-6-methyl-3-(E)-[3-(hexahydro-1-H-azepinyl)-propoxyimino]-1-(E)-heptene] | – | – | – | – | – | – | > 1000 mg/kg | – | 30 to 100 mg/kg | – |
| CC(C)CCC(/C=C/c1ccc(F)cc1)=N\OCCCN1CCCCC1 [Example 38, 1-(4-Fluorophenyl)-6-methyl-3-(E)-[3-(N-piperidinyl)-propoximino]-1-(E)-heptene] | – | – | – | 37.7 mg/kg | 1.3 mg/kg | 29.0 | 500 to 1000 mg/kg | 17 µM | 100 to 300 mg/kg | – |
| CC(C)CCC(/C=C/c1ccc(Cl)cc1)=N/OCCC1CCCN1C (centres unmarked) [Example 40, 1-(4-Chlorophenyl)-6-methyl-3-(Z)-[2-(2-N-methylpyrrolidinyl)-ethoxyimino]-1-(E)-heptene] | – | – | – | < 100 mg/kg | 0.9 mg/kg | < 100 | 1000 mg/kg | 10 µM | 100 to 300 mg/kg | – |
| CC(C)CCC(/C=C/c1ccc(Cl)cc1)=N\OCCCN1CCCC1 [Example 41, 1-(4-Chlorophenyl)-6-methyl-3-(E)-[3-(N-pyrrolidinyl)-propoxyimino]-1-(E)-heptene] | – | – | – | < 100 mg/kg | 2 mg/kg | < 50 | > 1000 mg/kg | 9 µM | 30 to 100 mg/kg | – |
| CC(C)CCC(/C=C/c1ccc(Br)cc1)=N\OCCCN1CCCCC1 [Example 42, 1-(4-Bromophenyl)-6-methyl-3-(E)-[(3-N-piperidinyl)-propoxyimino]-1-(E)-heptene] | – | – | – | – | – | – | > 1000 mg/kg | 7 µM | 100 to 300 mg/kg | – |
| COc1ccc2[nH]c([S+]([O-])Cc3ncc(C)c(OC)c3C)nc2c1 (centres unmarked) [Omeprazole, reference compound] | – | – | – | 3.9 mg/kg | 4.5 mg/kg | 0.9 | – | – | – | – |
| CN1CCN(CC(=O)N2c3ccccc3C(=O)Nc3cccnc32)CC1 [Pirenzepine, reference compound] | – | – | – | 7.9 mg/kg | 18.6 mg/kg | 0.4 | – | – | – | – |
| Sucralfate [reference compound] | – | – | – | – | – | – | – | – | – | Ethanol erosion ED50 ([5]; p.o., 1 cm^3 abs. ethanol): 69.0 |
